Reference: patent publication US9783511B2, “Carbamate benzoxazine propionic acids and acid derivatives for modulation of RORgamma activity and the treatment of disease” (Merck Sharp & Dohme Corp., priority 2013, dated 2017)

Molecular target: human RORgammaT-Ligand Binding Domain (LBD) (Homo sapiens (Human), UniProt P51449)
Test: RORγ-Ligand Binding Domain TR-FRET Assay (co-activator peptide SRC1_2 recruitment)
Type: biochemical
Settings: HIS-tagged RORγ-LBD 3 nM, biotinylated SRC1 LXXLL peptide 100 nM, incubated overnight at 4° C., 665 nm/615 nm ratio
Text: Activation of RORgammaT activity can be measured using, e.g., a biochemical TR-FRET assay. In such an assay, interaction of cofactor-derived peptides with human RORgammaT-Ligand Binding Domain (LBD) can be measured.
To identify novel antagonists of RORgammaT, an assay was developed which employs the interaction of RORgammaT with its co-activator peptide SRC1_2. […] The RORγ-Ligand Binding Domain TR-FRET Assay was run according to the following protocol.
HIS-tagged RORγ-LBD protein was recombinantly expressed in Escherichia coli. The RORγ-LBD protein was purified by Ni^2+-affinity resin. Purified protein was then diluted in assay buffer (50 mM Tris pH 7.0, 50 mM KCl, 1 mM EDTA, 0.1 mM DTT, 100 μg/mL bovine serum albumin, delipidated) to obtain a RORγ-LBD final concentration of 3 nM.
Compounds to be tested were injected to the 384-well assay plate using Acoustic Droplet Ejection technology by Echo 550 liquid handler (Labcyte, CA).

Sequence of human RORgammaT-Ligand Binding Domain (LBD) (P51449 269-508): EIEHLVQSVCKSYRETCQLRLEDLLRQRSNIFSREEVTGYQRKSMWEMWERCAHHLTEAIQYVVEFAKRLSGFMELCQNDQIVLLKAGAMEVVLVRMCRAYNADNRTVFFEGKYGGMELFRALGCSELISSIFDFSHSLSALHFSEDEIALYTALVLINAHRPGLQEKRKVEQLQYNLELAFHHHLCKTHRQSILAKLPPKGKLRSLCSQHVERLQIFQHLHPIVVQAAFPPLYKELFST

IC50 [nM]	Structure (SMILES)
22.4	COc1cc(S(=O)(=O)N2C[C@H]([C@H]3C[C@@H]3C(=O)O)Oc3ccc(NC(=O)OC(C)(C)C(F)(F)F)cc32)ccc1F (single isomer, unassigned) [Example 22i, (1R,2S or 1R,2R or 1S,2S or 1S,2R)-2-((S)-4-((4-fluoro-3-methoxyphenyl)sulfonyl)-6-((((1,1,1-trifluoro-2-methylpropan-2-yl)oxy)carbonyl)amino)-3,4-dihydro-2H-benzo[b][1,4]oxazin-2-yl)cylcopropanecarboxylic acid]
3.8	COc1cc(S(=O)(=O)N2C[C@H](CCC(=O)O)Oc3ccc(NC(=O)O[C@@H](C)C(C)(C)C)cc32)ccc1F (single isomer, unassigned) [Example 24C, 3-{(2S)-4-[(4-fluoro-3-methoxyphenyl)sulfonyl]-6-[({[(1S or 1R)-1,2,2-trimethylpropyl]oxy}carbonyl)amino]-3,4-dihydro-2H-1,4-benzoxazin-2-yl}propanoic acid]
3.73	COc1cc(S(=O)(=O)N2C[C@H](CCC(=O)O)Oc3ccc(NC(=O)O[C@H](C)C(C)(C)C)cc32)ccc1F (single isomer, unassigned) [Example 24D, 3-{(2S)-4-[(4-fluoro-3-methoxyphenyl)sulfonyl]-6-[({[(1S or 1R)-1,2,2-trimethylpropyl]oxy}cxarbonyl)amino]-3,4-dihydro-2H-1,4-benzoxazin-2-yl}propanoic acid]
11.4	CCn1cc(S(=O)(=O)N2C[C@H](CCC(=O)O)Oc3ccc(NC(=O)OC(C)(C)C(F)(F)F)cc32)c(OCCO)n1 (stereo in doubt) [Example 6CA, 3-(4-{[1-ethyl-3-(2-hydroxyethoxy)-1H-pyrazol-4-yl]sulfonyl}-6-{[(2,2,2-trifluoro-1,1-dimethylethoxy)carbonyl]amino}-3,4-dihydro-2H-1,4-benzoxazin-2-yl)propanoic acid]
6	CC(C)(OC(=O)Nc1ccc2c(c1)N(S(=O)(=O)c1cccc(Br)c1)C[C@H](CCC(=O)O)O2)C(F)(F)F [Example 6AA, (S)-3-(4-((3-bromophenyl)sulfonyl)-6-((((1,1,1-trifluoro-2-methylpropan-2-yl)oxy)carbonyl)amino)-3,4-dihydro-2H-benzo[b][1,4]oxazin-2-yl)propanoic acid]
9	CCOc1nn(C(F)F)cc1S(=O)(=O)N1C[C@H](CCC(=O)O)Oc2ccc(NC(=O)OC(C)(C)C(F)(F)F)cc21 [Example 6AB, (S)-3-(4-((1-(difluoromethyl)-3-ethoxy-1H-pyrazol-4-yl)sulfonyl)-6-((((1,1,1-trifluoro-2-methylpropan-2-yl)oxy)carbonyl)amino)-3,4-dihydro-2H-benzo[b][1,4]oxazin-2-yl)propanoic acid]
8	CC(C)(OC(=O)Nc1ccc2c(c1)N(S(=O)(=O)c1cccc(C3CC3)c1)C[C@H](CCC(=O)O)O2)C(F)(F)F [Example 6AC, (S)-3-(4-((3-cyclopropylphenyl)sulfonyl)-6-((((1,1,1-trifluoro-2-methylpropan-2-yl)oxy)carbonyl)amino)-3,4-dihydro-2H-benzo[b][1,4]oxazin-2-yl)propanoic acid]
12.4	CC(C)(OC(=O)Nc1ccc2c(c1)N(S(=O)(=O)c1ccc3c(c1)CCO3)C[C@H](CCC(=O)O)O2)C(F)(F)F [Example 6AE, (S)-3-(4-((2,3-dihydrobenzofuran-5-yl)sulfonyl)-6-((((1,1,1-trifluoro-2-methylpropan-2-yl)oxy)carbonyl)amino)-3,4-dihydro-2H-benzo[b][1,4]oxazin-2-yl)propanoic acid]
6.2	CC(C)(OC(=O)Nc1ccc2c(c1)N(S(=O)(=O)c1c(Cl)nc3sccn13)C[C@H](CCC(=O)O)O2)C(F)(F)F [Example 6AF, (S)-5-((2-(2-carboxyethyl)-6-((((1,1,1-trifluoro-2-methylpropan-2-yl)oxy)carbonyl)amino)-2H-benzo[b][1,4]oxazin-4(3H)-yl)sulfonyl)-6-chloroimidazo[2,1-b]thiazole]
8.84	CC(C)(OC(=O)Nc1ccc2c(c1)N(S(=O)(=O)c1ccc(Cl)c(Cl)c1)C[C@H](CCC(=O)O)O2)C(F)(F)F [Example 6AH, (S)-3-(4-((3,4-dichlorophenyl)sulfonyl)-6-((((1,1,1-trifluoro-2-methylpropan-2-yl)oxy)carbonyl)amino)-3,4-dihydro-2H-benzo[b][1,4]oxazin-2-yl)propanoic acid]
14	Cc1ccc(S(=O)(=O)N2C[C@H](CCC(=O)O)Oc3ccc(NC(=O)OC(C)(C)C(F)(F)F)cc32)cc1Cl [Example 6AJ, (S)-3-(4-((3-chloro-4-methylphenyl)sulfonyl)-6-((((1,1,1-trifluoro-2-methylpropan-2-yl)oxy)carbonyl)amino)-3,4-dihydro-2H-benzo[b][1,4]oxazin-2-yl)propanoic acid]
11.1	Cc1c(Cl)cc(F)cc1S(=O)(=O)N1C[C@H](CCC(=O)O)Oc2ccc(NC(=O)OC(C)(C)C(F)(F)F)cc21 [Example 6AK, (S)-3-(4-((3-chloro-5-fluoro-2-methylphenyl)sulfonyl)-6-((((1,1,1-trifluoro-2-methylpropan-2-yl)oxy)carbonyl)amino)-3,4-dihydro-2H-benzo[b][1,4]oxazin-2-yl)propanoic acid]
15	CC(C)(OC(=O)Nc1ccc2c(c1)N(S(=O)(=O)c1ccc(Cl)cn1)C[C@H](CCC(=O)O)O2)C(F)(F)F [Example 6AL, (S)-2-((2-(2-carboxyethyl)-6-((((1,1,1-trifluoro-2-methylpropan-2-yl)oxy)carbonyl)amino)-2H-benzo[b][1,4]oxazin-4(3H)-yl)sulfonyl)-5-chloropyridine]
17.1	COc1cc(C)ccc1S(=O)(=O)N1C[C@H](CCC(=O)O)Oc2ccc(NC(=O)OC(C)(C)C(F)(F)F)cc21 [Example 6AQ, (S)-3-(4-((2-methoxy-4-methylphenyl)sulfonyl)-6-((((1,1,1-trifluoro-2-methylpropan-2-yl)oxy)carbonyl)amino)-3,4-dihydro-2H-benzo[b][1,4]oxazin-2-yl)propanoic acid]
24.1	COc1cc(S(=O)(=O)N2C[C@H](CCC(=O)O)Oc3ccc(NC(=O)OC(C)(C)C(F)(F)F)cc32)ccn1 [Example 6AV, (S)-4-((2-(2-carboxyethyl)-6-((((1,1,1-trifluoro-2-methylpropan-2-yl)oxy)carbonyl)amino)-2H-benzo[b][1,4]oxazin-4(3H)-yl)sulfonyl)-2-methoxypyridine]
7.71	Cc1cc(S(=O)(=O)N2C[C@H](CCC(=O)O)Oc3ccc(NC(=O)OC(C)(C)C(F)(F)F)cc32)c(F)cc1F [Example 6AW, (S)-3-(4-((2,4-difluoro-5-methylphenyl)sulfonyl)-6-((((1,1,1-trifluoro-2-methylpropan-2-yl)oxy)carbonyl)amino)-3,4-dihydro-2H-benzo[b][1,4]oxazin-2-yl)propanoic acid]
9.92	Cc1nn(C(F)F)cc1S(=O)(=O)N1C[C@H](CCC(=O)O)Oc2ccc(NC(=O)OC(C)(C)C(F)(F)F)cc21 [Example 6AX, (S)-4-((2-(2-carboxyethyl)-6-((((1,1,1-trifluoro-2-methylpropan-2-yl)oxy)carbonyl)amino)-2H-benzo[b][1,4]oxazin-4(3H)-yl)sulfonyl)-1-(difluoromethyl)-3-methyl-1H-pyrazole]
7.31	Cc1cc(S(=O)(=O)N2C[C@H](CCC(=O)O)Oc3ccc(NC(=O)OC(C)(C)C(F)(F)F)cc32)c(Cl)cc1F [Example 6BA, (S)-3-(4-((2-chloro-4-fluoro-5-methylphenyl)sulfonyl)-6-((((1,1,1-trifluoro-2-methylpropan-2-yl)oxy)carbonyl)amino)-3,4-dihydro-2H-benzo[b][1,4]oxazin-2-yl)propanoic acid]
11.9	CCn1cc(S(=O)(=O)N2C[C@H](CCC(=O)O)Oc3ccc(NC(=O)OC(C)(C)C(F)(F)F)cc32)c(OC(F)F)n1 [Example 6BC, (S)-3-(4-((3-(difluoromethoxy)-1-ethyl-1H-pyrazol-4-yl)sulfonyl)-6-((((1,1,1-trifluoro-2-methylpropan-2-yl)oxy)carbonyl)amino)-3,4-dihydro-2H-benzo[b][1,4]oxazin-2-yl)propanoic acid]
14.8	CC(C)(OC(=O)Nc1ccc2c(c1)N(S(=O)(=O)c1cccc(S(F)(F)(F)(F)F)c1)C[C@H](CCC(=O)O)O2)C(F)(F)F [Example 6BD, 3-[(2S)-4-{[3-(pentafluoro-lambda~6~- sulfanyl)phenyl]sulfonyl}-6-{[(2,2,2-trifluoro-1,1-dimethylethoxy)carbonyl]amino}-3,4-dihydro-2H-1,4-benzoxazin-2-yl]propanoic acid]
10.9	CC(C)(OC(=O)Nc1ccc2c(c1)N(S(=O)(=O)c1cncc(Br)c1)C[C@H](CCC(=O)O)O2)C(F)(F)F [Example 6BU, 3-[(2S)-4-[(5-bromopyridin-3-yl)sulfonyl]-6-{[(2,2,2-trifluoro-1,1-dimethylethoxy)carbonyl]amino}-3,4-dihydro-2H-1,4-benzoxazin-2-yl]propanoic acid]
8.84	CC(C)(OC(=O)Nc1ccc2c(c1)N(S(=O)(=O)c1cncc(C3CC3)c1)C[C@H](CCC(=O)O)O2)C(F)(F)F [Example 6BV, 3-[(2S)-4-[(5-cyclopropylpyridin-3-yl)sulfonyl]-6-{[(2,2,2-trifluoro-1,1-dimethylethoxy)carbonyl]amino}-3,4-dihydro-2H-1,4-benzoxazin-2-yl]propanoic acid]
